Assay results from patent publication US20220347279A1, “VCX/Y PEPTIDES AND USE THEREOF” (BOARD OF REGENTS, THE UNIVERSITY OF TEXAS SYSTEM, priority 2019, published 2022).

Columns and labels:
Type in all cases: cell-based
VCX54 TCR-T cells [1] = experiment: Overlap peptide library screening: peptide-pulsed T2 cells co-cultured with VCX54 TCR-T, ICS of activation markers; conditions: peptide pulsed to T2 cells, overnight co-culture
Description: Overlap peptide library screening was performed for the recognition target peptide of VCX54 TCR-T cells (FIG. 1). The 9-mer peptide with 8 amino acid overlap peptide library covering the whole length of VCX3A protein was screened for the VCX54 TCR-T cell recognized target. The peptide was pulsed to T2 cell one by one and co-cultured with VCX54 TCR-T. After overnight culturing, the activated marker of T cells such as CD137, CD69, IFN-r and TNFa were detected using intracellular cytokine staining (ICS).
(§1) Intracellular cytokine staining (ICS) assay: The T cells were incubated with target cells at 10:1 ration in the presence of brefeldin A (BFA) at 37° C. overnight. After co-culturing, the T cells were harvested and washed. The cells were stained with flow antibody anti surface marker first. After that, the cells were washed and fixed with Fix Buffer and then were permeabilized using Permeabilizing Solution (eBioscience). Permeabilized cells are then stained with intracellular cytokine flow antibody. Finally, the level of cytokine producing in the cells was analyzed using FACS.

VCX54 TCR-T cells [2] = experiment: VCX118 peptide cross reaction detection (peptide titration on T2 cells, ICS); conditions: T2 cells pulsed with high concentration of peptide
Description: For VCX118 peptide cross reaction detection, different concentration of VCX118 peptide were used to pulse T2 cells and then co-cultured with VCX54 TCR-T cells. […] M26 peptide was used as a negative control (FIG. 2).
as §1

VCX54 TCR-T cells [3] = experiment: Peptide titration killing assay (calcein-AM quenching assay); conditions: peptide-pulsed T2 cells labeled with Calcein-AM, high concentrations
From the text: Different concentrations of VCX118 peptide were pulsed to T2 cells, labeled with Calcein-AM, and co-cultured with VCX54 TCR-T cells. The calcein-AM quenching assay was used to detect VCX54 TCR-T killing ability in response to the antigen.

VCX54 TCR-T cells [4] = experiment: VCX54 TCR-T recognition of longer peptides comprising VCX118 (ICS); conditions: peptides pulsed to T2 cells, co-cultured with VCX54 TCR-T cells
Description: Different length of peptides with VCX118 were pulsed to T2 cells and co-cultured with VCX54 TCR-T cells. The VCX118 peptide was used as a control.
as §1

HLA-A2 = target: T1, HLA-A2 (Homo sapiens, UniProt P04439, D140Y/D185E/D98H/E176V/E277Q/G131W/G231S/I119V/I121R/I166T/I218V/L300P/L318F/N151K/N90K/P208A/P217A/Q86G/Q94H/R138H/R169H/T345S); experiment: VCX118 peptide HLA-A2 binding assay (HLA-A2 stability analysis on T2 cells); conditions: T2 cells pulsed with different concentrations of peptide
T1 construct: endogenous in cells; host or cells: T2 cells
Description: Different concentrations of VCX118 peptide were pulsed to T2 cells, and the HLA-A2 stability analysis was performed to detect the VCX118 peptide binding ability. VCX54, M26 and M27 peptide were used as control.

Substance	induction of response of VCX54 TCR-T (CD137, CD69, IFN-r, TNFa by ICS) (VCX54 TCR-T cells [1])	ICS response relative to VCX54 original peptide (VCX54 TCR-T cells [2])	cross recognition by VCX54 TCR-T (ICS) (VCX54 TCR-T cells [2])	VCX54 TCR-T killing response relative to VCX54 peptide (VCX54 TCR-T cells [3])	recognition by VCX54 TCR-T cells (ICS) (VCX54 TCR-T cells [4])	binding ability to HLA-A2 (HLA-A2)
SEVEEPLSQ (listed as Homo sapiens) [VCX118, 9-mer VCX/Y peptide shared with all VCX/Y family members]	also be able to induce the response of VCX54 TCR-T cells	higher than the VCX54 original peptide	cross recognized by VCX54 TCR-T	higher than the VCX54 peptide	only recognized the VCX118 peptide	weak binding ability
VCX54: the target (original) 9-mer peptide of VCX3A recognized by VCX54 TCR-T cells; sequence not printed (GAATKMAAV) [reference compound]	able to induce the response of VCX54 TCR-T					
